Patent US20240108570A1, “METHOD AND COMPOSITION FOR DELIVERING A COMPOUND THROUGH A BIOLOGICAL BARRIER” (priority 2012, published 2024)

Experiments:
[1] = tested on: volar forearm skin of human volunteers; conditions: in vivo
Description: In both Examples 4 and 5, elongate microparticles (EMPs) were fabricated from silicon using deep reactive ion etching. Lithography was used to pattern a silicon wafer that was then coated with SU-8 photoresist. After a post exposure bake, the resist was developed in […]. The SU8 structures remaining served as a physical mask during etching, which were etched using a Bosch process. The etched EMPs were washed three times in acetone, followed by three washes in 100% ethanol and lastly three times in distilled water. Prior to application the EMPs were removed from the silicon wafer.
The ability of silicon EMPs of various diameters to penetrate the skin was determined by application of a mixture of sodium fluorescein and EMPs to the volar forearm of four human, healthy volunteers using a plastic applicator as described in provisional patent application AU2012905650. 50 μL of the sodium fluorescein solution having a concentration of 1 mg/mL was mixed with 5 mg of silicon EMPs and applied to the forearm using a gentle massage motion with the applicator. […]
Three different populations of EMPs were used to assess the influence of EMP diameter on penetration and delivery. […] Grouped data was analysed using a one-way ANOVA with a Tukey's multiple comparison test.

vaginal tracts of mice = conditions: mouse, in vivo
[2] = tested on: freshly excised, non-diseased human skin; type: in vitro ADME
Description: The results are illustrated in FIGS. 5 to 8.
FIGS. 7 and 8 illustrate the effect of application forces on the penetration of sodium fluorescein in conjunction with ‘long’ EMPs. Measurements were made 15 minutes after application to freshly excised, non-diseased human skin (from female, Caucasian, abdominal plastic surgery patients). […] Application forces of 0.2N, 5N and 10N were all applied using a gloved finger on a scale. The excised skin is place on the scale and the finger is applied to the EMPs/skin until a weight is achieved on the scale corresponding to either 0.2, 5 or 10 N.) All forces are effective in improving penetration of sodium fluorescein into the stratum spinosum. There was an apparent optimum application force of 5N under the conditions of the tests.

skin of human volunteers = conditions: in vivo
ex vivo pig skin = type: in vitro ADME
Description: FIG. 12 represents comparison of delivery of sodium fluorescein to ex vivo pig skin. Pig skin was sourced and prepared for drug treatment as described for FIG. 10. For EMP delivery, 50 μL of the payload solution (1 mg/mL sodium fluorescein) was gently mixed with or without 5 mg of either the ‘short’ or ‘long’ EMP preparations. The samples were then scraped onto the surface of the skin. Administration was achieved by massaging the solution for 30 s using small circular motions within a 3 cm 2 circular area. To maintain consistency between administrations, a small hand-held applicator was designed resulting in an application force of 0.25 N (as described in AU2012905650). After administration, the payload was left on the skin for 5 min followed by removal of excess solution with cotton swabs. The centre of the application area was excised using a 6 mm circular punch biopsy. A total of 6 samples were done per group. Each sample was stored at −20° C. prior to analysis. […] FIG. 12d represents fluorescence confocal microscopy mosaic images of the pig skin with topical application of sodium fluorescein only (no EMP). […] The images in FIGS. 12d to 12l have been pseudo-colored in greyscale, where black corresponds to 0 (min) fluorescence intensity and white corresponds to 255 (max) fluorescence intensity, as shown on the scale superimposed on FIG. 12l.

in vivo pig skin = tested on: in vivo pig skin
Description: FIG. 13 represents comparison of delivery of sodium fluorescein to in vivo pig skin. In vivo experiments were conducted on 6 female Landrace weaner pigs weighing approx. 10-15 kg (Centre for Advanced Animal Science, The University of Queensland Gatton Campus, Australia). The pigs were anaesthetized intramuscularly by co-administration of Butorphanol (0.15 mg/kg) and Zoletil (5 mg/kg) followed by intubation with isoflurane to maintain unconsciousness. Following anesthesia the flanks of the pigs were washed with soapy water and patted dry. The flank was then shaved gently using an electric razor. The flank was marked, to separate the application areas (2 cm diameter circles, 2 cm apart). Payload administration and amounts were done using the same parameters as for ex vivo. After all the groups/samples were applied and swabbed, the pig was turned over and the procedure repeated to the other flank (resulting in 12 samples per group). Finally, the pig was culled and the center of the application areas was excised using a 6 mm circular punch biopsy. Each sample was placed on dry-ice followed by storage at −20° C. prior to analysis.

## O=C([O-])c1ccccc1-c1c2ccc(=O)cc-2oc2cc([O-])ccc12.[Na+].[Na+] [sodium fluorescein]
[1]
  amount of sodium fluorescein detected: no significant difference
Excised pig skin
  enhancement of penetration of sodium fluorescein: superior ability
Vaginal tracts of mice
  penetration depth within the epithelium: about 60 μm
  penetration depth within the epithelium relative to delivery in the absence of EMP: more than 4 times
[2]
  increase in delivery of sodium fluorescein dye across the stratum corneum: several-fold increase
Excised human skin
  amount of sodium fluorescein penetrated (into the stratum spinosum): greatest amount
  transdermal delivery of sodium fluorescein dye: greatly enhance
Skin of human volunteers
  penetration of topically applied sodium fluorescein: more lasting and deeper penetration
Ex vivo pig skin
  fluorescence detected below the surface of the skin: minimal fluorescence
In vivo pig skin
  fluorescence detected below the surface of the skin: Minimal fluorescence
  sodium fluorescein signal: greater signal
